The values that follow come from patent publication US9597407B2, “Targeted antimicrobial moieties” (C3 Jian, Inc., priority 2009, dated 2017).

Entries after “also recorded” stand apart in the source; their conditions may differ.

Assay [1] relates to microorganisms. Nature of the assay: Peptide activities: binding, antimicrobial, growth or phenotype altering (Table 8). From the text: In certain embodiments, peptides described herein can have multiple activities. Thus for example, a peptide can have both binding/targeting activity and antimicrobial activity. Such peptides can be used, e.g., in a chimeric construct, for any or all of these properties. Thus, for example, a peptide designated “B” in Table 8 can be used as a targeting peptide. If it is also designated G or M it can also be used for antimicrobial activity.

Assay [2] relates to microorganisms. The assay can be described thus: Morphology, biofilm and growth disruption by peptides (Table 5). The assay is classed as cell-based. Also on record: key: A: Peptide aggregates; B: Less hyphal formation; Clumps; Diffuse clumps and small polyps; F: Diffuse growth; H: Thin; I: Growth inhibition; Microcolony formation; Rippled; Small polyps; Thick; W: Halo formation on top, microlonies on bottom. The source says:
In certain embodiments peptides that induce alterations in phenotype or other biological activities can also be used as antimicrobial effector moieties.

Another assay deals with bacteria. The assay can be described thus: Binding of targeting peptides to microorganisms (Table 3). To be noted: peptide binding in aqueous buffers that varied depending on peptide solubility; preferably 1x PBS.

Regarding “PF-C061 (TLNYKKMFFSVIFLLGLNYLICNSPLFFKQIEF; Peptide with targeting and/or antimicrobial activity)”, the Activities entry in the assay with microorganisms [1] was “G B”. Also, the “Organism, effect (morphology, biofilm and growth disruption)” value in the assay with microorganisms [2] (F. nucleatum) was “F. nucleatum (T)”; with microorganisms [2] (S. mutans), “S. mutans (F)”. The “Target(s) (microorganism bound by the targeting peptide)” value in the assay on bacteria was “A. naeslundii; also recorded: F. nucleatum; also recorded: P. gingivalis; also recorded: S. mutans; also recorded: T. denticola”.

Turning to “PF-C065 (DEERYSDSYFLKEKVFYLILALFLILFHQKYLYFLEIITI; Peptide with targeting and/or antimicrobial activity)”, in the assay on microorganisms [1], the Activities entry was “G B”. Besides, the “Organism, effect (morphology, biofilm and growth disruption)” value in the assay with microorganisms [2] (F. nucleatum) is listed as “F. nucleatum (T)”. The “Target(s) (microorganism bound by the targeting peptide)” value with bacteria is “A. naeslundii; also recorded: F. nucleatum; also recorded: P. gingivalis; also recorded: S. mutans”.

For the molecule “PF-C072 (KKMFSLIRKVNWIFFILFIVLDLTNVFPLIRTILFAILSRQ; Peptide with targeting and/or antimicrobial activity)”, the Activities entry with microorganisms [1] is “G B”. Besides, the “Organism, effect (morphology, biofilm and growth disruption)” value in the assay on microorganisms [2] (F. nucleatum) is on record as “F. nucleatum (T)”; in the assay on microorganisms [2] (P. gingivalis) it was “P. gingivalis (T)”; in the assay with microorganisms [2] (S. mutans), “S. mutans (F)”. For the same molecule, the “Target(s) (microorganism bound by the targeting peptide)” value with bacteria is recorded as “A. naeslundii; also recorded: F. nucleatum; also recorded: P. gingivalis; also recorded: S. mutans; also recorded: T. denticola”.

As to “PF-C095 (LLALNMNEDTYYFELFFIFDNQNKKWLIFDLKERG; Peptide with targeting and/or antimicrobial activity)”, the Activities entry in the assay on microorganisms [1] was “G B”. In addition, the “Organism, effect (morphology, biofilm and growth disruption)” value with microorganisms [2] (F. nucleatum) is “F. nucleatum (T)”. The “Target(s) (microorganism bound by the targeting peptide)” value in the assay with bacteria is listed as “A. naeslundii; also recorded: F. nucleatum; also recorded: P. gingivalis; also recorded: S. mutans”.

With “PF-C098 (PETKGKVSAFVFGIVVANVIAVVYILYMLREIGIIQ; Peptide with targeting and/or antimicrobial activity)”, the Activities entry in the assay on microorganisms [1] is “G B”. In addition, the “Organism, effect (morphology, biofilm and growth disruption)” value in the assay with microorganisms [2] (F. nucleatum) is reported as “F. nucleatum (T)”; with microorganisms [2] (S. mutans), “S. mutans (F)”. Besides, the “Target(s) (microorganism bound by the targeting peptide)” value in the assay with bacteria is reported as “A. naeslundii; also recorded: F. nucleatum; also recorded: P. gingivalis; also recorded: S. mutans; also recorded: T. denticola”.

On to “PF-C135 (KNTHAYLRVLRLSSLILSYQASVYPLFAYLCQQKDY; Peptide with targeting and/or antimicrobial activity)”, for which the Activities entry in the assay with microorganisms [1] is “G B”. The “Organism, effect (morphology, biofilm and growth disruption)” value is “F. nucleatum (C)” in the assay with microorganisms [2] (F. nucleatum) and “S. mutans (F)” in the assay on microorganisms [2] (S. mutans). The “Target(s) (microorganism bound by the targeting peptide)” value with bacteria is “A. naeslundii; also recorded: F. nucleatum; also recorded: P. gingivalis; also recorded: S. mutans”.

B1: PF-745 (peptide)
chain 1: ANSQNSLFSNRSSFKSIFDKKSNITTNATTPNSNIIIN
chain 2: ANSQNSLFSNRSSFKSIFDKKSNITTNATTPNSNIIIN
modifications: Peptide with targeting and/or antimicrobial activity
Consider B1, for which the Activities entry in the assay with microorganisms [1] is reported as “G B”. Besides, the “Organism, effect (morphology, biofilm and growth disruption)” value in the assay on microorganisms [2] (M. luteus) is “M. luteus (C)”; with microorganisms [2] (MRSA), “MRSA (C)”; with microorganisms [2] (S. mutans), “S. mutans (D)”; in the assay on microorganisms [2] (S. pneumoniae), “S. pneumoniae (C)”. The “Target(s) (microorganism bound by the targeting peptide)” value in the assay on bacteria is on record as “S. epidermidis; also recorded: M. luteus; also recorded: C. albicans”.
